Test results from paper PMC4080778, “Steroid conversion with CYP106A2 – production of pharmaceutically interesting DHEA metabolites” (Microbial Cell Factories, 2014).

Target: T1, CYP106A2 (Priestia megaterium, UniProt Q06069)
T1 sequence (Q06069 1-410): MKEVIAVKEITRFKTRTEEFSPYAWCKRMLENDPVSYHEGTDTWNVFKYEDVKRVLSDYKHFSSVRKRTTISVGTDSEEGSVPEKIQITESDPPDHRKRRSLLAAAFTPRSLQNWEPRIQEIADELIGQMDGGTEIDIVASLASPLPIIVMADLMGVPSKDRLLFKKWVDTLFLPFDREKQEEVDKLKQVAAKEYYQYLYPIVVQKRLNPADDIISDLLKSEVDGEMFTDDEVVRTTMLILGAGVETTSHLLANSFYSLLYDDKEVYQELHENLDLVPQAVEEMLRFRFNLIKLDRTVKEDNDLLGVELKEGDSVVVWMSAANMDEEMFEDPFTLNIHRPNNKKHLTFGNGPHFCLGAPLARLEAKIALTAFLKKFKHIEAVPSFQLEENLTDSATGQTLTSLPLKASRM
Assay: UV-vis difference spectroscopy titration (type I high-spin shift, tandem cuvettes)
Assay type: binding

**Q.** How did the Kd turn out when `C[C@]12CCC(=O)C=C1CC[C@@H]1[C@@H]2CC[C@]2(C)C(=O)CC[C@@H]12` [androstenedione] was run?
**A.** The Kd was 92 ± 11 µM.
